# Experimental data published in PMC4904354 (Journal of Cerebral Blood Flow & Metabolism, 2015).
# Where two headings read alike, the source gives them in different places.
# How the values were obtained:
# [1] = target: NMDA receptor ion-channel; details: read-out: apparent affinity value against [^3H]MK-801 (Ki); no reference given; cited from earlier work
# [2] = S-ketamine challenge: plasma concentration and tolerability; format: in vivo, human
# NMDA receptor [3] = details: cited from earlier work
# NMDA receptor [4] = details: cited from earlier work; remark: listed apart in the source
# [5] = cited from earlier work
# [6] = test system: N-methyl-D-aspartate receptor; format: in vivo, human; details: for K1, rate constant of transport, mean (SD) / Ki, net influx rate constant, mean (SD) / VND(K1/k2), nondisplaceable distribution volume, mean (SD): 2T3k_VB model, 90 min data
# [7] = Plasma metabolite analysis of [^11C]GMOM; format: in vivo, human; details: for parent fraction in plasma: mean ± SD, all scans N = 15
# [8] = followed by prolonged modest decrease until 90 min
# [9] = cerebellum, after S-ketamine 0.3 mgkg^−1 i.v., N = 6
# [10] = frontal cortex, baseline, N = 9
# [11] = occipital cortex, baseline, N = 9
# [12] = parietal cortex, baseline, N = 9
# [13] = striatum, after S-ketamine 0.3 mgkg^−1 i.v., N = 6
# [14] = temporal cortex, baseline, N = 9
# [15] = thalamus, after S-ketamine 0.3 mgkg^−1 i.v., N = 6
# [16] = whole brain gray matter, baseline, N = 9
smiles,measurement,setting,value
CN[C@]1(c2ccccc2Cl)CCCCC1=O [S-ketamine],Ki,[1],~1000 nM
same,mean plasma level of S-ketamine during the blocking scans,"[2]; 0.3 mgkg^−1 i.v., pseudo-steady state, healthy volunteers",56.2 ngml^−1
same,tolerability of the administered dose during scans,"[2]; 0.3 mgkg^−1 i.v., healthy volunteers",able to tolerate
same,mean S-ketamine plasma concentration,"[2]; at the end of the scan, six subjects, 0.3 mg kg^−1 i.v. pseudo-steady state",38 ng/mL
CSc1cccc(N(C)C(N)=Nc2cc(SCCF)ccc2Cl)c1 [[[18]F]GE-179],Kd,NMDA receptor [3],2.4 nM
CSc1cccc(N(C)C(N)=Nc2cc(SCC[18F])ccc2Cl)c1 [[[18]F]GE-179],mean parent fraction remaining in plasma,NMDA receptor [4]; at 20 min postinjection,50%
same,time of peak uptake in brain TACs,NMDA receptor [4]; [8],around 20 min
same,log D7.4,[5]; pH 7.4,2.49
CSc1ccc(Cl)c(NC(=N)N(C)c2cccc(S[11CH3])c2)c1 [[^11C]CNS5161],log P,[5],1.92
CSc1cccc(N(C)C(=N)Nc2cc(SC)ccc2Cl)c1 [[^11C]CNS5161],Kd,NMDA receptor [3],1.9 ± 0.3 nM
"CSc1ccc(Cl)c(NC(=N)N(C)c2cccc(O[11CH3])c2)c1 [[^11C]GMOM, N-(2-chloro-5-thiomethylphenyl)-N′-(3-[^11C]methoxy-phenyl)-N′-methylguanidine]","K1, rate constant of transport, mean (SD)",[6]; [9],0.45 (0.06) min^−1
same,"Ki, net influx rate constant, mean (SD)",[6]; [9],0.005 (0.008) min^−1
same,"VND(K1/k2), nondisplaceable distribution volume, mean (SD)",[6]; [9],9.37 (0.98)
same,"K1, rate constant of transport, mean (SD)","[6]; cerebellum, baseline, N = 9",0.46 (0.07) min^−1
same,"Ki, net influx rate constant, mean (SD)","[6]; cerebellum, baseline, N = 9",0.014 (0.010) min^−1
same,"VND(K1/k2), nondisplaceable distribution volume, mean (SD)","[6]; cerebellum, baseline, N = 9",8.43 (2.02)
same,time of peak uptake in brain TACs,[6]; [8],around 20 min
same,"K1, rate constant of transport, mean (SD)",[6]; [10],0.48 (0.07) min^−1
same,"Ki, net influx rate constant, mean (SD)",[6]; [10],0.023 (0.014) min^−1
same,"VND(K1/k2), nondisplaceable distribution volume, mean (SD)",[6]; [10],8.54 (2.00)
same,"K1, rate constant of transport, mean (SD)","[6]; hippocampus, baseline, N = 9",0.36 (0.07) min^−1
same,"Ki, net influx rate constant, mean (SD)","[6]; hippocampus, baseline, N = 9",0.028 (0.012) min^−1
same,"VND(K1/k2), nondisplaceable distribution volume, mean (SD)","[6]; hippocampus, baseline, N = 9",7.82 (2.25)
same,"K1, rate constant of transport, mean (SD)",[6]; [11],0.47 (0.04) min^−1
same,"Ki, net influx rate constant, mean (SD)",[6]; [11],0.021 (0.012) min^−1
same,"VND(K1/k2), nondisplaceable distribution volume, mean (SD)",[6]; [11],8.53 (1.73)
same,"K1, rate constant of transport, mean (SD)",[6]; [12],0.46 (0.05) min^−1
same,"Ki, net influx rate constant, mean (SD)",[6]; [12],0.021 (0.014) min^−1
same,"VND(K1/k2), nondisplaceable distribution volume, mean (SD)",[6]; [12],8.81 (1.98)
same,"K1, rate constant of transport, mean (SD)",[6]; [13],0.50 (0.08) min^−1
same,"Ki, net influx rate constant, mean (SD)",[6]; [13],0.007 (0.007) min^−1
same,"VND(K1/k2), nondisplaceable distribution volume, mean (SD)",[6]; [13],9.88 (0.86)
same,"K1, rate constant of transport, mean (SD)","[6]; striatum, baseline, N = 9",0.50 (0.06) min^−1
same,"Ki, net influx rate constant, mean (SD)","[6]; striatum, baseline, N = 9",0.021 (0.015) min^−1
same,"VND(K1/k2), nondisplaceable distribution volume, mean (SD)","[6]; striatum, baseline, N = 9",9.15 (1.85)
same,"K1, rate constant of transport, mean (SD)",[6]; [14],0.41 (0.06) min^−1
same,"Ki, net influx rate constant, mean (SD)",[6]; [14],0.020 (0.012) min^−1
same,"VND(K1/k2), nondisplaceable distribution volume, mean (SD)",[6]; [14],8.63 (2.06)
same,"K1, rate constant of transport, mean (SD)",[6]; [15],0.52 (0.09) min^−1
same,"Ki, net influx rate constant, mean (SD)",[6]; [15],0.006 (0.007) min^−1
same,"VND(K1/k2), nondisplaceable distribution volume, mean (SD)",[6]; [15],11.32 (1.58)
same,"K1, rate constant of transport, mean (SD)","[6]; thalamus, baseline, N = 9",0.50 (0.08) min^−1
same,"Ki, net influx rate constant, mean (SD)","[6]; thalamus, baseline, N = 9",0.024 (0.019) min^−1
same,"VND(K1/k2), nondisplaceable distribution volume, mean (SD)","[6]; thalamus, baseline, N = 9",10.14 (2.56)
same,"K1, rate constant of transport, mean (SD)",[6]; [16],0.45 (0.05) min^−1
same,"Ki, net influx rate constant, mean (SD)",[6]; [16],0.021 (0.012) min^−1
same,"VND(K1/k2), nondisplaceable distribution volume, mean (SD)",[6]; [16],8.47 (1.88)
same,parent fraction in plasma,[7]; at 5 min p.i.,0.80 ± 0.06
same,mean parent fraction remaining in plasma,[7]; at 20 min postinjection,50%
same,parent fraction in plasma,[7]; at 60 min p.i.,0.21 ± 0.08
same,nonpolar metabolites fraction in plasma,[7]; at 90 min p.i.,1.5 ± 2.0%
same,log P,[5],2.34
CN(C(=N)Nc1cccc2ccccc12)c1cccc(I)c1 [[^123I]CNS1261],Kd,NMDA receptor [3],4.2 ± 0.4 nM
